From US20250035641A1, “COMPOSITIONS AND METHODS RELATED TO PROTEIN LABELING” (The Chinese University of Hong Kong, priority 2023, published 2025)

Key:
HTN-BRD4 and 0tfOGT = biological target: T1, HTN-BRD4 and 0tfOGT (Homo sapiens, UniProt O60885+P62942, F37V); assay: Washout / reversibility study, HTN-BRD4:0tfOGT; type: cell-based; details: 500 nM 4 h pretreatment, then fresh media
T1 construct: HaloTag fragment; 0TPR(463-1046)-; expressed in transfected cells; host or cells: HEK293T
Method: FIGS. 7A-7E: Specificity and reversibility of OGTAC strategy. […] (B), Constructs of fOGT with 13.5 (rounded to 13) TPR and 0TPR-fOGT (0tfOGT). (C). […] (D), Dose-dependent O-GlcNAcylation profile of HTN-BRD4 by OGTAC-4 treatment. HEK293T cells expressing HTN-BRD4:0tfOGT=1:0.05 were treated with an increasing concentration of OGTAC-4 for 4 h. Then, the O-GlcNAcylation level of HTN-BRD4 was assessed by immunoblot after IP using BRD4 antibody. All quantifications are shown as mean±s.e.m. of n=3 biologically independent experiments. (E), Reversible effect of OGTAC-4 on HTN-BRD4 can be achieved by addition of AP1867. HEK293T cells expressing HTN-BRD4:0tfOGT=1:0.05 were pretreated with OGTAC-4 (500 nM) or DMSO for 4 h, and culturing media were replaced by fresh media with DMSO or AP1867 (50 μM) for the indicated time. The quantifications in right panel were conducted by the normalizing the fold-change (OGTAC-4/DMSO) for each post-washout time point to the value of 4 h pre-treatment. All quantifications are shown as mean±s.e.m. of 3 independent biological repeats. Statistical significance was calculated with ordinary one-way ANOVA comparing samples with different transfection conditions or OGTAC-treatment. ns, p≥0.05; *p<0.05; **p<0.01; ***p<0.001; ****p<0.0001.
To assess the potential application of our OGTAC strategy in downstream biological studies, we investigated the reversibility of OGTACs. […] Additionally. the O-GlcNAc level of BRD4 returned to baseline after 6 hours of AP1867 treatment, confirming the reversibility of the induction effect (FIG. 7E).
For each IP reaction, 2.2×10^6 HEK293T cells were seed in 10 cm dish. After cells attached, transfection reagents and plasmids were prepared and added in DMEM. After 24 h transfection, media were replaced by fresh warm complete media with DMSO or probes. For washout study, after 4 h treatment, media with DMSO or OGTAC-4 (500 nM) were replaced by fresh media with DMSO or AP1867 (50 μM) for further incubation. After certain time of OGTACs treatment, cells were collected by cold PBS and lysed by 200 μL complete IP lysis buffer. […]

HTN-CK2α = HTN-CK2α (Homo sapiens, UniProt P68400); assay: O-GlcNAcylation of HTN-CK2α with 0tfOGT; type: cell-based; set-up: 0TPR(463-1046)-; expressed in transfected cells; details: vs negative control OGTAC-1H
Method: FIGS. 18A and 18B: Immunoblotting analysis of the global O-GlcNAcylation inducing effect of truncated OGTAC-4 and OGTAC-1 on HTN-BRD4 and HTN-CK2α respectively. (A), O-GlcNAcylation inducing effect of OGTAC-4 is dependent on the expression of 0tfOGT. […] The quantification was conducted by immunoblot signal of probe treatment/control as the mean±s.e.m. of n=2 biologically independent experiments. TR, transfection reagent.

T1 sequence (P62942 whole entry F37V, stated change not applied, other chains not shown, the tested form may be a part): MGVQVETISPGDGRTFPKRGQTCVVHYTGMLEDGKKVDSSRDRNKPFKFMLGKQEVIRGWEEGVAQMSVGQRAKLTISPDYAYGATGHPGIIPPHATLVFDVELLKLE
HTN-CK2α, sequence (P68400 with tags, fused parts or gaps): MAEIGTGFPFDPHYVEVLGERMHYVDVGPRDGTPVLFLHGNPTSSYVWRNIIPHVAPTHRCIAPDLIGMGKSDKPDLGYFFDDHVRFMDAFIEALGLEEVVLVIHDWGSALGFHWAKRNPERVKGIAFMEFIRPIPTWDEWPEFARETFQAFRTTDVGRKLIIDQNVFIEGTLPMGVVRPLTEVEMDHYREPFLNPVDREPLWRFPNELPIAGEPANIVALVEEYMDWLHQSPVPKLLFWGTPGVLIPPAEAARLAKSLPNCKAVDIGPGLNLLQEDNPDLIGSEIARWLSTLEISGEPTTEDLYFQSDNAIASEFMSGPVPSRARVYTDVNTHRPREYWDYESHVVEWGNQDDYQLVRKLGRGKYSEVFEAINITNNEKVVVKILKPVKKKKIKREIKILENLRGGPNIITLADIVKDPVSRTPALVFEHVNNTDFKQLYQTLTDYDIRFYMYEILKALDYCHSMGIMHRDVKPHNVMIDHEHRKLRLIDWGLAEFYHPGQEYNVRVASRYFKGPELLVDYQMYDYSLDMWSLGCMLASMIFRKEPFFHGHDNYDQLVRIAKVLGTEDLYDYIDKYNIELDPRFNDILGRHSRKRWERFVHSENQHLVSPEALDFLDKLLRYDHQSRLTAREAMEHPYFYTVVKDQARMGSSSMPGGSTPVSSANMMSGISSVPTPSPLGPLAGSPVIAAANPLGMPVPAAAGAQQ
HTN-CK2α, sequence (P62942+O15294 fused P62942:F37V partner): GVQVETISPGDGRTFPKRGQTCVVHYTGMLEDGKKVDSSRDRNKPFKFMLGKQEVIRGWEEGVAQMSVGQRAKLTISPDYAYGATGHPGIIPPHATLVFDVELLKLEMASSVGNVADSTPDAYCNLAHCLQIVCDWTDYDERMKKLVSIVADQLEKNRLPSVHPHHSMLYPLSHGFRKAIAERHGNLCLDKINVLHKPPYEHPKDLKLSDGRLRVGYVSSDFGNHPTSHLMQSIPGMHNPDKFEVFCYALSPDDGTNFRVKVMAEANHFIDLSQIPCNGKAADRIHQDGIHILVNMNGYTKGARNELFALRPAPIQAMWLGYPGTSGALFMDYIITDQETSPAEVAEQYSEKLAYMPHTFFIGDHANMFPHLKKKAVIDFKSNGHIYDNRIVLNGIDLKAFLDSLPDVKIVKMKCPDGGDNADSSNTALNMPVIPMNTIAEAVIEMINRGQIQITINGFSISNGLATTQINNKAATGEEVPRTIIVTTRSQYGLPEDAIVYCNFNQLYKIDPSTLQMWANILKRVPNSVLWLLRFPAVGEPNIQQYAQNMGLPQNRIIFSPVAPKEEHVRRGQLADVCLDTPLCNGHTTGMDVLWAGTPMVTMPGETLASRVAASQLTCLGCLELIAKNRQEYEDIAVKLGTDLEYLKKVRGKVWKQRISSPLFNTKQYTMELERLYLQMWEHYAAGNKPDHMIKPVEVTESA

CC[C@H](C(=O)N1CCCC[C@H]1C(=O)O[C@H](CCc1ccc(OC)c(OC)c1)c1cccc(OCC(=O)NCCCCCCNC(=O)C[C@@H]2N=C(c3ccc(Cl)cc3)c3c(sc(C)c3C)-n3c(C)nnc32)c1)c1cc(OC)c(OC)c(OC)c1 [OGTAC-4, (R)-1-(3-(2-((6-(2-((S)-4-(4-chlorophenyl)-2,3,9-trimethyl-6H-thieno[3,2-f[]8 1,2,4]triazolo[4,3-a][1,4]diazepin-6-yl)acetamido)hexyl)amino)-2-oxoethoxy)phenyl)-3-(3,4-dimethoxyphenyl)propyl (S)-1-((S)-2-(3,4,5-trimethoxyphenyl)butanoyl)piperidine-2-carboxylate]
O-GlcNAc induction and ternary complex formation after washout (HTN-BRD4 and 0tfOGT): persisted post-washout

CC[C@H](C(=O)N1CCCC[C@H]1C(=O)O[C@H](CCc1ccc(OC)c(OC)c1)c1cccc(OCC(=O)NCCOCCOCCCCCCCl)c1)c1cc(OC)c(OC)c(OC)c1 [OGTAC-1, (R)-1-(3-(2-((2-(2-((6-chlorohexyl)oxy)ethoxy)ethyl)amino)-2-oxoethoxy)phenyl)-3-(3,4-dimethoxyphenyl)propyl (S)-1-((S)-2-(3,4,5-trimethoxyphenyl)butanoyl) piperidine-2-carboxylate]
O-GlcNAcylation level of HTN-CK2α with 0tfOGT (HTN-CK2α): higher O-GlcNAcylation level
